Measurements taken from PMC5362750, “Discovery of Potent, Selective, and Orally Bioavailable Small-Molecule Modulators of the Mediator Complex-Associated Kinases CDK8 and CDK19” (Journal of Medicinal Chemistry, 2016).
Converted amounts (≈) assume the structure as drawn. Read-outs that look alike come from different tables or passages of the source.

What was measured:
[1] = Thermodynamic solubility determination; assay type: physicochemical; conditions: phosphate buffer, pH 7.4, 37 °C, read-out: Solubility Therm.
[2] = Caco-2 Papp determination; conditions: human, Caco-2, pH 7.4
In vivo mouse PK = conditions: for Vd / clearance / bioavailability: female, NMRI, plasma; for Vd / clearance: iv; for clearance: Cl; for bioavailability: po, 0.5 mg/kg

| SMILES | solubility at 24 h ([1]; pH 7.4, TFA salt) | Papp A→B at 2 h, 1 μM [2] | Vd (In vivo mouse PK; 0.2 mg/kg) | clearance (In vivo mouse PK; 0.2 mg/kg, 0.2 mg/kg iv) | efflux ratio at 2 h, 1 μM [2] | bioavailability (In vivo mouse PK) | solubility at 24 h ([1]; pH 7.4, free base) | Cl (In vivo mouse PK; 0.2 mg/kg iv, 0.2 mg/kg) |
| --- | --- | --- | --- | --- | --- | --- | --- | --- |
| CC(C)(O)Cn1cc(-c2ccc(-c3cnc(N)c(Cl)c3N3CCC4(CCNC4=O)CC3)cc2)cn1 [Compound 86, 8-(2-Amino-3-chloro-5-(4-(1-(2-hydroxy-2-methylpropyl)-1H-pyrazol-4-yl)phenyl)pyridin-4-yl)-2,8-diazaspiro[4.5]decan-1-one] |  | 25.4 ×10⁻⁶ cm/s | 1.22 L/kg | 17.8 mL/min/kg | 42.7 | 7% |  |  |
| CN1c2ccc(-c3cnc(N)c(F)c3N3CCC4(CCNC4=O)CC3)cc2CS1(=O)=O [Compound 92, 8-(2-Amino-3-fluoro-5-(1-methyl-2,2-dioxido-1,3-dihydrobenzo[c]isothiazol-5-yl)pyridin-4-yl)-2,8-diazaspiro[4.5]decan-1-one] |  | 23.9 ×10⁻⁶ cm/s | 0.86 L/kg | 21.3 mL/min/kg | 29.5 | 37% |  |  |
| CN1CNC(=O)C12CCN(c1c(Cl)cncc1-c1ccc(-c3cnn(C)c3)cc1)CC2 [Compound 104] |  | 30.6 ×10⁻⁶ cm/s |  |  |  |  |  |  |
| CC(C)(O)Cn1cc(-c2ccc(-c3cncc(Cl)c3N3CCC4(CCNC4=O)CC3)cc2)cn1 [Compound 18] |  | 32 ×10⁻⁶ cm/s | 0.8 L/kg | 16.5 mL/min/kg | 26.1 |  | 33 µg/mL (≈ 68.7 µM) |  |
| CN(C)CCn1cc(-c2ccc(-c3cncc(Cl)c3N3CCC4(CCNC4=O)CC3)cc2)cn1 [Compound 19] |  | 25.4 ×10⁻⁶ cm/s |  |  | 12.4 |  |  |  |
| Cn1cc(-c2ccc(-c3cnc(N)c(C(F)(F)F)c3N3CCC4(CC3)CNC(=O)O4)cc2)cn1 [Compound 95, 8-(2-Amino-5-(4-(1-methyl-1H-pyrazol-4-yl)phenyl)-3-(trifluoromethyl)pyridin-4-yl)-1-oxa-3,8-diazaspiro[4.5]decan-2-one 2,2,2-Trifluoroacetate] | 8 µg/mL | 29.1 ×10⁻⁶ cm/s | 1.93 L/kg | 25 mL/min/kg |  | 42% |  |  |
| Cn1cc(-c2ccc(-c3cncc(Cl)c3N3CCC4(CC3)CNC(=O)O4)cc2)cn1 [Compound 41] |  | 30.6 ×10⁻⁶ cm/s |  |  | 2.4 |  |  |  |
| Cn1cc(-c2ccc(-c3cncc(Cl)c3N3CCC4(CC3)NC(=O)CNC4=O)cc2)cn1 [Compound 48] | 8 µg/mL | 6.7 ×10⁻⁶ cm/s | 1.84 L/kg | 71.2 mL/min/kg |  | 5% |  |  |
| Cn1nc(N)c2ccc(-c3cncc(Cl)c3N3CCC4(CCNC4=O)CC3)cc21 [Compound 101, 8-(3-(3-Amino-1-methyl-1H-indazol-6-yl)-5-chloropyridin-4-yl)-2,8-diazaspiro[4.5]decan-1-one 2,2,2-Trifluoroacetate] |  | 39 ×10⁻⁶ cm/s |  |  |  |  |  |  |
| CNc1n[nH]c2cc(-c3cncc(Cl)c3N3CCC4(CCNC4=O)CC3)ccc12 [Compound 100, 8-(3-Chloro-5-(3-(methylamino)-1H-indazol-6-yl)pyridin-4-yl)-2,8-diazaspiro[4.5]decan-1-one] |  | 28.8 ×10⁻⁶ cm/s |  |  |  |  |  |  |
| Cc1nc(-c2ccc(-c3cncc(Cl)c3N3CCC4(CCNC4=O)CC3)cc2)cn1C [Compound 21] | 33 µg/mL | 18.8 ×10⁻⁶ cm/s | 6.41 L/kg | 278 mL/min/kg |  | 12% |  |  |
| Cn1cc(-c2ccc(-c3cnc(N)c(C(F)(F)F)c3N3CCC4(CCNC4=O)CC3)cc2)cn1 [Compound 94] |  | 20.7 ×10⁻⁶ cm/s |  |  |  |  |  |  |
| Cn1cc(-c2ccc(-c3cnc(N)c(Cl)c3N3CCC4(CC3)CNC(=O)O4)cc2)cn1 [Compound 89] | 5 µg/mL | 48.3 ×10⁻⁶ cm/s | 1.4 L/kg | 22.5 mL/min/kg |  | 35% |  |  |
| CC(C)n1cc(-c2ccc(-c3cnc(N)c(Cl)c3N3CCC4(CCNC4=O)CC3)cc2)cn1 [Compound 108] |  | 37.4 ×10⁻⁶ cm/s |  |  |  |  |  |  |
| Cn1ncc2cc(-c3cnc(N)c(Cl)c3N3CCC4(CC3)CNC(=O)O4)ccc21 [Compound 110] |  | 33.4 ×10⁻⁶ cm/s |  |  |  |  |  |  |
| Nc1n[nH]c2cc(-c3cncc(Cl)c3N3CCC4(CCNC4=O)CC3)ccc12 [Compound 25, 8-(3-(3-Amino-1H-indazol-6-yl)-5-chloropyridin-4-yl)-2,8-diazaspiro[4.5]decan-1-one] | 540 µg/mL | 0.03 ×10⁻⁶ cm/s | 1.21 L/kg | 29.2 mL/min/kg |  | 5% |  |  |
| Cn1cc(-c2ccc(-c3cncc(C(F)(F)F)c3N3CCC4(CC3)CNC(=O)O4)cc2)cn1 [Compound 72, 8-(3-(4-(1-Methyl-1H-pyrazol-4-yl)phenyl)-5-(trifluoromethyl)pyridin-4-yl)-1-oxa-3,8-diazaspiro[4.5]decan-2-one 2,2,2-Trifluoroacetate] | 35 µg/mL | 47.4 ×10⁻⁶ cm/s | 2.3 L/kg | 30.3 mL/min/kg |  | 48% |  |  |
| Cn1cc(-c2ccc(-c3cnc(N)c(Cl)c3N3CCC4(CCNC4=O)CC3)cc2)cn1 [Compound 85] |  | 37 ×10⁻⁶ cm/s | 0.74 L/kg | 11.2 mL/min/kg | 4.9 | 61% |  |  |
| Cn1cc(-c2ccc(-c3cnc(N)c(Cl)c3N3CCC4(CC3)NC(=O)NC4=O)cc2)cn1 [Compound 91] | < 1 µg/mL | 9.6 ×10⁻⁶ cm/s |  |  |  |  |  |  |
| Cn1cc(-c2ccc(-c3cncc(Cl)c3N3CCC4(CC3)NC(=O)NC4=O)cc2)cn1 [Compound 45] | 39 µg/mL | 15.9 ×10⁻⁶ cm/s | 1.26 L/kg | 26 mL/min/kg |  | 11% |  |  |
| Cn1cc(-c2ccc(-c3cncc(Cl)c3N3CCC4(CC3)NCNC4=O)cc2)cn1 [Compound 44] |  | 19.1 ×10⁻⁶ cm/s | 1.12 L/kg | 51.2 mL/min/kg |  | 20% |  |  |
| O=C1NCCC12CCN(c1c(Cl)cncc1-c1ccc(-c3cnn(CCN4CCCC4)c3)cc1)CC2 [Compound 20] |  | 30.4 ×10⁻⁶ cm/s |  |  | 5.3 |  |  |  |
| O=C1NCCC12CCN(c1c(Cl)cncc1-c1ccc(-c3cnn(CCO)c3)cc1)CC2 [Compound 17] | 112 µg/mL | 22.7 ×10⁻⁶ cm/s | 1.61 L/kg | 47.2 mL/min/kg | 19.5 | 7% |  |  |

Further lines, results first:

| solubility at 24 h ([1]; pH 7.4, TFA salt) | Papp A→B at 2 h, 1 μM [2] | Vd (In vivo mouse PK; 0.2 mg/kg) | clearance (In vivo mouse PK; 0.2 mg/kg, 0.2 mg/kg iv) | efflux ratio at 2 h, 1 μM [2] | bioavailability (In vivo mouse PK) | solubility at 24 h ([1]; pH 7.4, free base) | Cl (In vivo mouse PK; 0.2 mg/kg iv, 0.2 mg/kg) | SMILES |
| --- | --- | --- | --- | --- | --- | --- | --- | --- |
| 53 µg/mL | 16.6 ×10⁻⁶ cm/s | 1.34 L/kg | 47.7 mL/min/kg |  |  |  |  | CN1c2ccc(-c3cncc(Cl)c3N3CCC4(CC3)CNC(=O)O4)cc2CS1(=O)=O [Compound 42, 8-(3-Chloro-5-(1-methyl-2,2-dioxido-1,3-dihydrobenzo[c]isothiazol-5-yl)pyridin-4-yl)-1-oxa-3,8-diazaspiro[4.5]decan-2-one] |
|  | 45.9 ×10⁻⁶ cm/s |  |  |  |  |  |  | CN(C)c1nn(C)c2cc(-c3cncc(Cl)c3N3CCC4(CCNC4=O)CC3)ccc12 [Compound 102, 8-(3-Chloro-5-(3-(dimethylamino)-1-methyl-1H-indazol-6-yl)pyridin-4-yl)-2,8-diazaspiro[4.5]decan-1-one] |
|  | 34.3 ×10⁻⁶ cm/s |  |  | 1.7 |  |  |  | COCCN1CCCC12CCN(c1c(Cl)cncc1-c1ccc3c(c1)CS(=O)(=O)N3C)CC2 [Compound 54, 5-(5-Chloro-4-(1-(2-methoxyethyl)-1,8-diazaspiro[4.5]decan-8-yl)pyridin-3-yl)-1-methyl-1,3-dihydrobenzo[c]isothiazole 2,2-Dioxide] |
|  | 33.8 ×10⁻⁶ cm/s |  |  | 11 |  |  |  | CN1c2cc(-c3cncc(Cl)c3N3CCC4(CCNC4=O)CC3)ccc2CS1(=O)=O [Compound 24] |
| 613 µg/mL | 19.8 ×10⁻⁶ cm/s | 1.96 L/kg | 69.2 mL/min/kg |  | 9% |  |  | CC1=NC2(CCN(c3c(Cl)cncc3-c3ccc4c(c3)CS(=O)(=O)N4C)CC2)C(=O)N1 [Compound 47] |
|  | 4 ×10⁻⁶ cm/s |  |  | 81 |  |  |  | CN1c2ccc(-c3cnc(N)c(F)c3N3CCC4(CC3)CNC(=O)O4)cc2CS1(=O)=O [Compound 93] |
|  | 3.3 ×10⁻⁶ cm/s |  |  | 126 |  |  |  | CN1c2ccc(-c3cncc(Cl)c3N3CCC4(CC3)NC(=O)NC4=O)cc2CS1(=O)=O [Compound 46] |
|  | 35.3 ×10⁻⁶ cm/s |  |  |  |  |  |  | CN(C)CCC1(C#N)CCN(c2c(Cl)cncc2-c2ccc3c(c2)CS(=O)(=O)N3C)CC1 [Compound 51] |
|  | 29 ×10⁻⁶ cm/s |  |  | 3.3 |  |  |  | CN1c2ccc(-c3cncc(Cl)c3N3CCC4(CCNC4=O)CC3)cc2CS1(=O)=O [Compound 23, 8-(3-Chloro-5-(1-methyl-2,2-dioxido-1,3-dihydrobenzo[c]isothiazol-5-yl)pyridin-4-yl)-2,8-diazaspiro[4.5]decan-1-one] |
|  | 16 ×10⁻⁶ cm/s | 2.67 L/kg | 87.5 mL/min/kg | 6.5 | 27% |  |  | CN1c2ccc(-c3cncc(F)c3N3CCC4(CC3)CNC(=O)O4)cc2CS1(=O)=O [Compound 63, 8-(3-Fluoro-5-(1-methyl-2,2-dioxido-1,3-dihydrobenzo[c]isothiazol-5-yl)pyridin-4-yl)-1-oxa-3,8-diazaspiro[4.5]decan-2-one] |
|  | 19.3 ×10⁻⁶ cm/s |  |  | 5.8 |  |  |  | CN1c2ccc(-c3cnc(N)c(Cl)c3N3CCC4(CCNC4=O)CC3)cc2CS1(=O)=O [Compound 88] |
| 2 µg/mL | 10.3 ×10⁻⁶ cm/s | 1.81 L/kg | 36 mL/min/kg |  | 9% |  |  | CN1c2ccc(-c3cnc(N)c(Cl)c3N3CCC4(CC3)CNC(=O)O4)cc2CS1(=O)=O [Compound 90] |
|  | 32.9 ×10⁻⁶ cm/s | 1.86 L/kg | 132 mL/min/kg | 3 | 5% |  | 132 mL/min/kg | CN1c2ccc(-c3cncc(F)c3N3CCC4(CCNC4=O)CC3)cc2CS1(=O)=O [Compound 61, 8-(3-Fluoro-5-(1-methyl-2,2-dioxido-1,3-dihydrobenzo[c]isothiazol-5-yl)pyridin-4-yl)-2,8-diazaspiro[4.5]decan-1-one] |
